Assay results as given in patent publication US6124460A, “Isoquinuclidine derivatives, method of manufacturing the same and therapeutic agents for hypercholesterolemia containing these compounds” (Kotobuki Pharmaceutical Co. Ltd., priority 1998, dated 2000).
Counter-ions that a name gives are not always drawn.

Legend:
[1] = biological target: T1, Squalene Synthase in Rat Liver Microsomes (Rattus norvegicus, UniProt Q02769); assay: Assay of squalene synthase (SQS) in rat liver microsomes; format: biochemical, male Sprague-Dawley rat; conditions: for IC50: 2.5 μM FPP, pH 7.4, 30 min at 37° C., read-out: Inhibition of SQS IC50; for Inhibition of SQS (N.E.; no effect at a dose in the parentheses): at 10^-5 M
T1 construct: microsomes were prepared from male Sprague-Dawley rat; from tissue; host or cells: rat liver microsomes (male Sprague-Dawley)
T1 sequence (Q02769 1-416): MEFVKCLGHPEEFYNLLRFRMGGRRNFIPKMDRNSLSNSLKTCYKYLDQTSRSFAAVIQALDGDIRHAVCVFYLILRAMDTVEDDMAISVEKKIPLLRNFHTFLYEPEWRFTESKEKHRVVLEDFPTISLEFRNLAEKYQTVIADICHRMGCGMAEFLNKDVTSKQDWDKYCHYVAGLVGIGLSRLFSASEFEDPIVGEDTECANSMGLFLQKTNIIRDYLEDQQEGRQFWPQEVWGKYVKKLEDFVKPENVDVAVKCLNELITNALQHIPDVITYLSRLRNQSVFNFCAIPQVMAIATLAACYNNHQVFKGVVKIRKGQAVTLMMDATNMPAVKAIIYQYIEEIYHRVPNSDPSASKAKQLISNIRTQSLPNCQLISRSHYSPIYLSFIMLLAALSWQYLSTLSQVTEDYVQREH
Protocol: 1. Assay of Squalene Synthase in Rat Liver Microsomes Squalene synthase assay was performed in accordance with the method described by [NT] (Biochem. Pharmacol., 51, 1477 (1996)). That is to say, microsomes were prepared from male Sprague-Dawley rat (weight range 250-300 g) by homogenising in 50 mM phosphate buffer, pH 7.4, 5.0 mM MgCl2, 1.0 mM EDTA, and 1.0 mM dithiothreitol using a polytron (Kinetica, Sweden). The homogenates were centrifuged at 10,000 g for 20 min at 4° C., and, after spinning the supernatants were poured into the tube through cotton gauze. Microsomes were then isolated from the supernatant by centrifugation at 178,000 g for 90 min at 4° C. Microsomes were then resuspended in homogenisation buffer and stored in aliquots at -80° C. until use. For in vitro studies, the compounds were dissolved in DMSO. The squalene synthase reaction system in a volume of 100 μl contained 50 mM phosphate buffer, pH 7.4, 5.0 mM MgCl2, 10 mM KF, 0.5 mM NADPH, 50 mM ascorbic acid, 20U /ml ascorbate oxidase, 2.5 μM farnesyl-pyrophosphate (FPP) and microsomes, 40 μg/ml. The compounds (in 1 μl DMSO), microsomes (in 10 μl buffer) and other reagent ([…]) were pre-incubated for 5 min at 37° C. The reactions were started by the addition of 5 μl of an aqueous solution of FPP containing about 0.1 μCi of [H] FPP; incubations were at 37° C. for 30 min. The reactions were then stopped by the addition of 50 μl of 20% KOH in 50% ethanol. […] The IC50 values were calculated.

Sterol Biosynthesis = assay: Assay of sterol biosynthesis in rats (inhibition of cholesterol biosynthesis); format: in vivo; conditions: female Sprague-Dawley rats, liver; for inhibition at 30 mg/kg: po, vs vehicle-treated controls; for inhibition at 30 mg/kg / Inhibition of cholesterol biosynthesis (N.E.; no effect at a dose in the parentheses): 30 mg/kg p.o.

| IC50 [1] | SMILES | also measured |
| --- | --- | --- |
| 64 nM | CCOC(=O)C#Cc1ccc(OCCCN2CC3CCC2CC3)cc1 [Compound 12, Ethyl 4-[3-(2-azabicyclo[2.2.2]octan-2-yl)propoxy]phenylpropiolate hydrochloride] |  |
| 410 nM | CCOC(=O)c1ccc(C#Cc2ccc(OCCCN3C(=O)C4CCC3CC4)cc2)cc1 [Compound 15, Ethyl 4-[4-[3-(3-oxo-2-azabicyclo[2.2.2]octan-2-yl)propoxy]phenylethynyl]-benzoate] |  |
| 690 nM | CCOC(=O)c1ccc(C#Cc2ccc(OCCCN3CC4CCC3CC4)cc2)cc1 [Compound 20, Ethyl 4-[4-[3-(2-azabicyclo[2.2.2]octan-2-yl)propoxy]phenylethynyl]-benzoate hydrochloride] |  |
| 56000 nM | O=C1C2CCC(CC2)N1CCCOc1ccc(C#Cc2ccc(N3C(=O)C4CCC3CC4)cc2)cc1 [Compound 24, 2-[3-[4-[4-(3-oxo-2-azabicyclo[2.2.2]octan-2-yl)phenylethynyl]phenoxy]propan-1-yl]-2-azabicyclo[2.2.2]octan-3-one] |  |

Second part, the compound before the results:

| SMILES | IC50 [1] | also measured |
| --- | --- | --- |
| C#Cc1ccc(OCCCN2C(=O)C3CCC2CC3)cc1 [Compound 5, 2-[3-(4-ethynylphenoxy)propane-1-yl]-2-azabicyclo[2.2.2]octane-3-one] | 11 nM | ED50 (Sterol Biosynthesis; Rattus norvegicus, oral gavage, [H] mevalonolactone i.p. after 1 hr): 13.4 mg/kg |
| CCOC(=O)C#Cc1ccc(OCCCN2C(=O)C3CCC2CC3)cc1 [Compound 6, Ethyl 4-[3-(3-oxo-2-azabicyclo[2.2.2]octan-2-yl)propoxy]phenylpropiolate] | 3100 nM |  |
| O=C(O)C#Cc1ccc(OCCCN2C(=O)C3CCC2CC3)cc1 [Compound 7, 4-[3-(3-oxo-2-azabicyclo[2.2.2]octan-2-yl)propoxy]phenylpropiolic acid] | 490 nM |  |
| C#Cc1ccc(OCCCN2CC3CCC2CC3)cc1 [Compound 10, 2-[3-(4-ethynylphenoxy)propane-1-yl]-2-azabicyclo[2.2.2]octane hydrochloride] | 19 nM | inhibition at 30 mg/kg (Sterol Biosynthesis; Rattus norvegicus): 48.6% |
| C#Cc1ccc(OCCN2C(=O)C3CCC2CC3)cc1 [Compound 13, 2-[2-(4-ethynylphenoxy)ethyl]-2-azabicyclo[2.2.2]octane-3-one] |  | Inhibition of SQS (N.E.; no effect at a dose in the parentheses) [1]: N.E.; inhibition at 30 mg/kg (Sterol Biosynthesis; Rattus norvegicus): 30.3% |
| C#Cc1ccc(OCCCCN2C(=O)C3CCC2CC3)cc1 [Compound 14, 2-[4-(4-ethynylphenoxy)butane-1-yl]-2-azabicyclo[2.2.2]-octane-3-one] | 490 nM |  |
| O=C(O)c1ccc(C#Cc2ccc(OCCCN3C(=O)C4CCC3CC4)cc2)cc1 [Compound 16, 4-[4-[3-(3-oxo-2-azabicyclo[2.2.2]octan-2-yl)propoxy]phenylethynyl]-benzoic acid] | 23 nM | Inhibition of cholesterol biosynthesis (N.E.; no effect at a dose in the parentheses) (Sterol Biosynthesis): N.E. |
| Cl.O=C(O)c1ccc(C#Cc2ccc(OCCCN3CC4CCC3CC4)cc2)cc1 [Compound 19, 4-[4-[3-(2-azabicyclo[2.2.2]octan-2-yl)propoxy]phenylethynyl]-benzoic acid hydrochloride] | 39 nM | Inhibition of cholesterol biosynthesis (N.E.; no effect at a dose in the parentheses) (Sterol Biosynthesis): N.E. |
| O=C(O)c1ccc(C#Cc2ccc(OCCCN3C(=O)C4CCC3CC4)cc2)s1 [Compound 21, 5-[4-[3-(3-oxo-2-azabicyclo[2.2.2]octan-2-yl)propoxy]phenylethynyl]-thiophene-2-carboxylic acid] | 56 nM |  |
| O=C1C2CCC(CC2)N1CCCOc1ccc(C#Cc2cccc3ncccc23)cc1 [Compound 22, 2-[3-[4-(quinolin-5-yl-ethynyl)phenoxy]propan-1-yl]-2-azabicyclo[2.2.2]-octan-3-one hydrochloride] | 15 nM | inhibition at 30 mg/kg (Sterol Biosynthesis; Rattus norvegicus): 25.1% |
| O=C1C2CCC(CC2)N1CCCOc1ccc(C#Cc2ccc(-c3cccc4ncccc34)cc2)cc1 [Compound 23, 2-[3-[4-[4-(quinolin-5-yl)phenylethynyl]phenoxy]propan-1-yl]-2-azabicyclo[2.2.2]octan-3-one hydrochloride] | 69 nM | inhibition at 30 mg/kg (Sterol Biosynthesis; Rattus norvegicus): 46.7% |
| C(#Cc1cccc2ncccc12)c1ccc(OCCCN2CC3CCC2CC3)cc1 [Compound 25, 2-[3-[4-(quinolin-5-yl-ethynyl)phenoxy]propan-1-yl]-2-azabicyclo[2.2.2]-octane dihydrochloride] | 31 nM |  |
| C#Cc1ccc(OCCCN2C(=O)C3CCC2CC3)c(CC=C)c1 [Compound 37, 2-[3-[(2-allyl-4-ethynyl)phenoxy]propane-1-yl]-2-azabicyclo[2.2.2]oct-3-one] |  | Inhibition of SQS (N.E.; no effect at a dose in the parentheses) [1]: N.E. |
| C#Cc1ccc(OCCCN2CC3CCC2CC3)c(CC=C)c1 [Compound 38, 2-[3-[(2-Allyl-4-ethynyl)phenoxy]propane-1-yl]-2-azabicyclo[2.2.2]octane hydrochloride] | 11 nM | inhibition at 30 mg/kg (Sterol Biosynthesis; Rattus norvegicus): 50.4% |
